# In PubChem BioAssay (NCI):
#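 These data come from cells grown in 96-well plates and exposed to compound for 48 hours at five concentrations. Here, GI50 denotes the concentration required for 50% inhibition of growth. At the TGI there is no net growth.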
# Experiments:
# Experiment in all cases: NCI tumour cell line growth inhibition, 48 h
# 786-0 renal = tested on: 786-0 renal
# A498 renal = tested on: A498 renal
# A549 NSCLC = tested on: A549 NSCLC
# ACHN renal = tested on: ACHN renal
# CAKI-1 renal = tested on: CAKI-1 renal
# CCRF-CEM leukemia = tested on: CCRF-CEM leukemia
# DLD-1 colon = tested on: DLD-1 colon
# DMS 114 small cell lung = tested on: DMS 114 small cell lung
# DMS 273 small cell lung = tested on: DMS 273 small cell lung
# EKVX NSCLC = tested on: EKVX NSCLC
# HCC-2998 colon = tested on: HCC-2998 colon
# HCT-116 colon = tested on: HCT-116 colon
# HCT-15 colon = tested on: HCT-15 colon
# HL-60(TB) leukemia = tested on: HL-60(TB) leukemia
# HOP-18 NSCLC = tested on: HOP-18 NSCLC
# HOP-62 NSCLC = tested on: HOP-62 NSCLC
# HOP-92 NSCLC = tested on: HOP-92 NSCLC
# HT29 colon = tested on: HT29 colon
# IGROV1 ovarian = tested on: IGROV1 ovarian
# K-562 leukemia = tested on: K-562 leukemia
# KM12 colon = tested on: KM12 colon
# KM20L2 colon = tested on: KM20L2 colon
# LOX IMVI melanoma = tested on: LOX IMVI melanoma
# LXFL 529 NSCLC = tested on: LXFL 529 NSCLC
# M14 melanoma = tested on: M14 melanoma
# M19-MEL melanoma = tested on: M19-MEL melanoma
# MALME-3M melanoma = tested on: MALME-3M melanoma
# MOLT-4 leukemia = tested on: MOLT-4 leukemia
# NCI-H226 lung = tested on: NCI-H226 lung
# NCI-H23 lung = tested on: NCI-H23 lung
# NCI-H460 lung = tested on: NCI-H460 lung
# OVCAR-3 ovarian = tested on: OVCAR-3 ovarian
# OVCAR-4 ovarian = tested on: OVCAR-4 ovarian
# OVCAR-5 ovarian = tested on: OVCAR-5 ovarian
# OVCAR-8 ovarian = tested on: OVCAR-8 ovarian
# RPMI-8226 leukemia = tested on: RPMI-8226 leukemia
# RXF 393 renal = tested on: RXF 393 renal
# RXF-631 renal = tested on: RXF-631 renal
# SF-268 CNS = tested on: SF-268 CNS
# SF-295 CNS = tested on: SF-295 CNS
# SF-539 CNS = tested on: SF-539 CNS
# SK-MEL-2 melanoma = tested on: SK-MEL-2 melanoma
# SK-MEL-28 melanoma = tested on: SK-MEL-28 melanoma
# SK-MEL-5 melanoma = tested on: SK-MEL-5 melanoma
# SN12C renal = tested on: SN12C renal
# SNB-19 CNS = tested on: SNB-19 CNS
# SNB-75 CNS = tested on: SNB-75 CNS
# SNB-78 CNS = tested on: SNB-78 CNS
# SR leukemia = tested on: SR leukemia
# SW-620 colon = tested on: SW-620 colon
# TK-10 renal = tested on: TK-10 renal
# UACC-257 melanoma = tested on: UACC-257 melanoma
# UACC-62 melanoma = tested on: UACC-62 melanoma
# UO-31 renal = tested on: UO-31 renal
# XF 498 CNS = tested on: XF 498 CNS
# MCF7 breast = tested on: MCF7 breast
# MDA-MB-231 breast = tested on: MDA-MB-231 breast
# NCI-H522 lung = tested on: NCI-H522 lung
# P388 leukemia = tested on: P388 leukemia
# SK-OV-3 ovarian = tested on: SK-OV-3 ovarian
# U251 CNS = tested on: U251 CNS
smiles,measurement,setting,value
COc1cccc(OC)c1/C=N\N1C(=O)c2ccccc2C1=O,TGI,786-0 renal,> 100 µM
same,TGI,A498 renal,> 100 µM
same,TGI,A549 NSCLC,> 100 µM
same,TGI,ACHN renal,> 100 µM
same,TGI,CAKI-1 renal,> 100 µM
same,TGI,CCRF-CEM leukemia,> 100 µM
same,TGI,DLD-1 colon,> 100 µM
same,TGI,DMS 114 small cell lung,91 µM
same,TGI,DMS 273 small cell lung,84.6 µM
same,TGI,EKVX NSCLC,> 100 µM
same,TGI,HCC-2998 colon,91.9 µM
same,TGI,HCT-116 colon,87.6 µM
same,TGI,HCT-15 colon,> 100 µM
same,TGI,HL-60(TB) leukemia,79.8 µM
same,TGI,HOP-18 NSCLC,> 100 µM
same,TGI,HOP-62 NSCLC,> 100000 nM
same,TGI,HOP-92 NSCLC,> 100 µM
same,TGI,HT29 colon,> 100 µM
same,TGI,IGROV1 ovarian,> 100 µM
same,TGI,K-562 leukemia,> 100 µM
same,TGI,KM12 colon,> 100000 nM
same,TGI,KM20L2 colon,37.4 µM
same,TGI,LOX IMVI melanoma,> 100 µM
same,TGI,LXFL 529 NSCLC,> 100 µM
same,TGI,M14 melanoma,58.2 µM
same,TGI,M19-MEL melanoma,> 100 µM
same,TGI,MALME-3M melanoma,> 100000 nM
same,TGI,MOLT-4 leukemia,> 100 µM
same,TGI,NCI-H226 lung,> 100 µM
same,TGI,NCI-H23 lung,> 100 µM
same,TGI,NCI-H460 lung,> 100 µM
same,TGI,OVCAR-3 ovarian,44.1 µM
same,TGI,OVCAR-4 ovarian,> 100 µM
same,TGI,OVCAR-5 ovarian,> 100 µM
same,TGI,OVCAR-8 ovarian,89.3 µM
same,TGI,RPMI-8226 leukemia,> 100 µM
same,TGI,RXF 393 renal,62.1 µM
same,TGI,RXF-631 renal,> 100 µM
same,TGI,SF-268 CNS,> 100 µM
same,TGI,SF-295 CNS,> 100 µM
same,TGI,SF-539 CNS,52.4 µM
same,TGI,SK-MEL-2 melanoma,> 100 µM
same,TGI,SK-MEL-28 melanoma,> 100 µM
same,TGI,SK-MEL-5 melanoma,> 100 µM
same,TGI,SN12C renal,> 100 µM
same,TGI,SNB-19 CNS,> 100 µM
same,TGI,SNB-75 CNS,98.1 µM
same,TGI,SNB-78 CNS,> 100 µM
same,TGI,SR leukemia,74.5 µM
same,TGI,SW-620 colon,> 100 µM
same,TGI,TK-10 renal,> 100 µM
same,TGI,UACC-257 melanoma,> 100 µM
same,TGI,UACC-62 melanoma,> 100 µM
same,TGI,UO-31 renal,> 100000 nM
same,TGI,XF 498 CNS,86.4 µM
COc1ccc2c3c(c4cc(OC)c(OC)cc4c2c1)C[C@H]1CCCCN1C3,TGI,786-0 renal,0.000212 µM
same,TGI,CAKI-1 renal,0.00103 µM
same,TGI,DLD-1 colon,0.038 µM
same,TGI,HCT-116 colon,0.011 µM
same,TGI,HOP-62 NSCLC,0.00165 nM
same,TGI,KM12 colon,0.00184 nM
same,TGI,LOX IMVI melanoma,0.029 µM
same,GI50,MALME-3M melanoma,1.82 pM
same,TGI,MALME-3M melanoma,0.00988 nM
same,TGI,MCF7 breast,0.0316 µM
same,TGI,MDA-MB-231 breast,1.92 pM
same,GI50,NCI-H23 lung,2.01 pM
same,TGI,NCI-H23 lung,0.000279 µM
same,GI50,NCI-H522 lung,2.82 pM
same,TGI,NCI-H522 lung,0.000216 µM
same,TGI,OVCAR-4 ovarian,0.00591 µM
same,TGI,OVCAR-8 ovarian,0.0231 µM
same,TGI,P388 leukemia,0.00512 µM
same,TGI,SK-OV-3 ovarian,0.0149 µM
same,GI50,SNB-75 CNS,1.78 pM
same,TGI,SNB-75 CNS,0.000103 µM
same,TGI,SNB-78 CNS,0.00897 µM
same,GI50,SW-620 colon,0.00889 µM
same,TGI,U251 CNS,0.0212 µM
same,TGI,UO-31 renal,0.00442 nM
